Tests used:
Assay in all cases: KINOMEscan
NIK = NIK (Homo sapiens, UniProt Q99558); conditions: read-out: Percent Control
Protocol: (§1) The kinase engagement assay (KINOMEscan®) was performed by DiscoverX assessing binding abilities toward a set of kinases.

MAP3K15 = MAP3K15 (Homo sapiens, UniProt Q6ZN16); conditions: read-out: Percent Control
Protocol: as §1

PIM3 = PIM3 (Homo sapiens, UniProt Q86V86); conditions: read-out: Percent Control
Protocol: as §1

AXL = AXL (Homo sapiens, UniProt P30530); conditions: read-out: Percent Control
Protocol: as §1

CSNK1G3 = CSNK1G3 (Homo sapiens, UniProt Q9Y6M4); conditions: read-out: Percent Control
Protocol: as §1

SRPK1 = SRPK1 (Homo sapiens, UniProt Q96SB4); conditions: read-out: Percent Control
Protocol: as §1

EPHB4 = EPHB4 (Homo sapiens, UniProt P54760); conditions: read-out: Percent Control
Protocol: as §1

MAP4K2 = MAP4K2 (Homo sapiens, UniProt Q12851); conditions: read-out: Percent Control
Protocol: as §1

PYK2 = PYK2 (Homo sapiens, UniProt Q14289); conditions: read-out: Percent Control
Protocol: as §1

CDK11 = CDK11 (Homo sapiens, UniProt Q9BWU1); conditions: read-out: Percent Control
Protocol: as §1

EPHA2 = EPHA2 (Homo sapiens, UniProt P29317); conditions: read-out: Percent Control
Protocol: as §1

PIK3CA(E545K) = PIK3CA(E545K) (Homo sapiens, UniProt P42336, E545K); conditions: read-out: Percent Control
Protocol: as §1

ERK2 = ERK2 (Homo sapiens, UniProt P28482); conditions: read-out: Percent Control
Protocol: as §1

MAPKAPK5 = MAPKAPK5 (Homo sapiens, UniProt Q8IW41); conditions: read-out: Percent Control
Protocol: as §1

ERK5 = ERK5 (Homo sapiens, UniProt Q13164); conditions: read-out: Percent Control
Protocol: as §1

PFPK5(P. falciparum) = target: T1, PFPK5(P. falciparum) (Plasmodium falciparum, UniProt P61075); assay type: binding; conditions: read-out: Percent Control
T1 construct: purchased DiscoverX

PRP4 = target: T2, PRP4 (Homo sapiens, UniProt Q13523); assay type: binding; conditions: read-out: Percent Control
T2 construct: purchased DiscoverX

DLK = DLK (Homo sapiens, UniProt Q12852); conditions: read-out: Percent Control
Protocol: as §1

CDK9 = CDK9 (Homo sapiens, UniProt P50750); conditions: read-out: Percent Control
Protocol: as §1

CSNK1A1 = CSNK1A1 (Homo sapiens, UniProt P48729); conditions: read-out: Percent Control
Protocol: as §1

PIK3CA(H1047Y) = PIK3CA(H1047Y) (Homo sapiens, UniProt P42336, H1047Y); conditions: read-out: Percent Control
Protocol: as §1

PRKX = PRKX (Homo sapiens, UniProt P51817); conditions: read-out: Percent Control
Protocol: as §1

PIK3CA(I800L) = PIK3CA(I800L) (Homo sapiens, UniProt P42336, I800L); conditions: read-out: Percent Control
Protocol: as §1

ROS1 = ROS1 (Homo sapiens, UniProt P08922); conditions: read-out: Percent Control
Protocol: as §1

BUB1 = BUB1 (Homo sapiens, UniProt O43683); conditions: read-out: Percent Control
Protocol: as §1

CSNK1G2 = CSNK1G2 (Homo sapiens, UniProt P78368); conditions: read-out: Percent Control
Protocol: as §1

MEK6 = MEK6 (Homo sapiens, UniProt P52564); conditions: read-out: Percent Control
Protocol: as §1

FLT3(ITD) = conditions: 10 μM
Protocol: as §1

PIK3CB = PIK3CB (Homo sapiens, UniProt P42338); conditions: read-out: Percent Control
Protocol: as §1

VRK2 = VRK2 (Homo sapiens, UniProt Q86Y07); conditions: read-out: Percent Control
Protocol: as §1

DMPK2 = DMPK2 (Homo sapiens, UniProt Q6DT37); conditions: read-out: Percent Control
Protocol: as §1

SGK = SGK (Homo sapiens, UniProt O00141); conditions: read-out: Percent Control
Protocol: as §1

p38-delta = p38-delta (Homo sapiens, UniProt O15264); conditions: read-out: Percent Control
Protocol: as §1

MST1 = MST1 (Homo sapiens, UniProt Q13043); conditions: read-out: Percent Control
Protocol: as §1

KIT(D816H) = KIT(D816H) (Homo sapiens, UniProt P10721, D816H); conditions: read-out: Percent Control
Protocol: as §1

MARK3 = MARK3 (Homo sapiens, UniProt P27448); conditions: read-out: Percent Control
Protocol: as §1

MLK1 = MLK1 (Homo sapiens, UniProt P80192); conditions: read-out: Percent Control
Protocol: as §1

EPHB1 = EPHB1 (Homo sapiens, UniProt P54762); conditions: read-out: Percent Control
Protocol: as §1

Chain of ERK5 (Q13164 whole entry): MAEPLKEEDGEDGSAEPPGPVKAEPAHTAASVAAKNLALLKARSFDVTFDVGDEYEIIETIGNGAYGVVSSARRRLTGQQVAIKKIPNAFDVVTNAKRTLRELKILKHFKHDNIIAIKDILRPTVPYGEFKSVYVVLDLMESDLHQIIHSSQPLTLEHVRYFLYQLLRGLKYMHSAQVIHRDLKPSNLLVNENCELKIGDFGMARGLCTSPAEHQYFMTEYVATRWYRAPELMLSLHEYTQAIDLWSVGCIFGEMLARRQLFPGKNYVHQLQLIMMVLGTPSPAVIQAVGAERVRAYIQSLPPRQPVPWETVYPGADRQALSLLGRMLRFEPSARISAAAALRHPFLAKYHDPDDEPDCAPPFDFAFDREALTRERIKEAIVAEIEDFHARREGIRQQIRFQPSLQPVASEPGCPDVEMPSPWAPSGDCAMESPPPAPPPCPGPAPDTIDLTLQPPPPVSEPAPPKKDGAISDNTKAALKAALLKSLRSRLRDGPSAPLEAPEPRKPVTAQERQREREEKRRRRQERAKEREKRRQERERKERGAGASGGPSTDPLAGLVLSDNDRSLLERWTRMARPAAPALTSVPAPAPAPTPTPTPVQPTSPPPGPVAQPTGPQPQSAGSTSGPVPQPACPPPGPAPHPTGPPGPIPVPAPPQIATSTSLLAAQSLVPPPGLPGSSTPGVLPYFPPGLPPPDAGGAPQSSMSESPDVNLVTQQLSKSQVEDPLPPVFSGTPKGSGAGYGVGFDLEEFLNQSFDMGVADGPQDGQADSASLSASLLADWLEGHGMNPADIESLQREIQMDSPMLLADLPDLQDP
Chain of MARK3 (P27448 whole entry): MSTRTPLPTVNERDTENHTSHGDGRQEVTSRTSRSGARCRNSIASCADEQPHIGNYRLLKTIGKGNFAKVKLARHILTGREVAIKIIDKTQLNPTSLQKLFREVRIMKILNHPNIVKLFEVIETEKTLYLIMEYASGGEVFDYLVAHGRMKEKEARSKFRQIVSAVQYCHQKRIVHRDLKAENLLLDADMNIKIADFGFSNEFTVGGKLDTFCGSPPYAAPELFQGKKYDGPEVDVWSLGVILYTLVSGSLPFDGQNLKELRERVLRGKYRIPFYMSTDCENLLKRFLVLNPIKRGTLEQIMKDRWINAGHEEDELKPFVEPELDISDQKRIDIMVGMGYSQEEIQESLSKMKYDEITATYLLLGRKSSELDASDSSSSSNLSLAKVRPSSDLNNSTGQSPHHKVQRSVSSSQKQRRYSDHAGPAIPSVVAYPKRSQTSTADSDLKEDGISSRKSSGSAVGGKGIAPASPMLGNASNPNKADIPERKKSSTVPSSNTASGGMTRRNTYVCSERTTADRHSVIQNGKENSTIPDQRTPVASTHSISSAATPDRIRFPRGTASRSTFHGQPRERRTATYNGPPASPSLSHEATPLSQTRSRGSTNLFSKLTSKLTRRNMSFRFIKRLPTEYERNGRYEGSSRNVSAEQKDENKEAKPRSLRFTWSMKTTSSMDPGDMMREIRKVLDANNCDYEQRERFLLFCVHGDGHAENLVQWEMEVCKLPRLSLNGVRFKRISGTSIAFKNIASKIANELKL
Chain of KIT(D816H) (P10721 26-976 D816H): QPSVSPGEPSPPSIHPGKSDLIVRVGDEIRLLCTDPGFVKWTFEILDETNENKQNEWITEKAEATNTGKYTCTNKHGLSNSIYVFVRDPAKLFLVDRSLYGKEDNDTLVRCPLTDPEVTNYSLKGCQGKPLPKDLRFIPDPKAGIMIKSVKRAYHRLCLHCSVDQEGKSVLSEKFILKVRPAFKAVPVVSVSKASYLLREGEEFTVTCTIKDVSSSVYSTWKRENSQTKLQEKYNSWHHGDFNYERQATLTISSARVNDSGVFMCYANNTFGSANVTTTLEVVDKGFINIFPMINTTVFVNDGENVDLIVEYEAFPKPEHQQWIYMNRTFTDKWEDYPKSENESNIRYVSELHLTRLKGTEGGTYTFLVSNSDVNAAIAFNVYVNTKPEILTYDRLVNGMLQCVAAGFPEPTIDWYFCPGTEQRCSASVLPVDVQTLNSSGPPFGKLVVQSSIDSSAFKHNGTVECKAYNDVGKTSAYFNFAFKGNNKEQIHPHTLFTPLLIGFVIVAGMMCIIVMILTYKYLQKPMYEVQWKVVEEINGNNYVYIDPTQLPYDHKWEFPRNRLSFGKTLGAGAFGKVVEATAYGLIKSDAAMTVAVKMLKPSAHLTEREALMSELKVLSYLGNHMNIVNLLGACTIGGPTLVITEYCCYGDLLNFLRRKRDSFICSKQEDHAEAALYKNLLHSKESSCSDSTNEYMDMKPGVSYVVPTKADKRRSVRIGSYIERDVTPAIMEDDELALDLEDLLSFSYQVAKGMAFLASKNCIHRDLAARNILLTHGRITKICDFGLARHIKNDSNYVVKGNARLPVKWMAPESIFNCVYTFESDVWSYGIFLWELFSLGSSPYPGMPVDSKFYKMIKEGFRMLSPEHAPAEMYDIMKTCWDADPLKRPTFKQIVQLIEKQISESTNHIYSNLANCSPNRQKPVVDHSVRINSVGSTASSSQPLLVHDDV
Chain of PIK3CA(E545K) (P42336 whole entry E545K): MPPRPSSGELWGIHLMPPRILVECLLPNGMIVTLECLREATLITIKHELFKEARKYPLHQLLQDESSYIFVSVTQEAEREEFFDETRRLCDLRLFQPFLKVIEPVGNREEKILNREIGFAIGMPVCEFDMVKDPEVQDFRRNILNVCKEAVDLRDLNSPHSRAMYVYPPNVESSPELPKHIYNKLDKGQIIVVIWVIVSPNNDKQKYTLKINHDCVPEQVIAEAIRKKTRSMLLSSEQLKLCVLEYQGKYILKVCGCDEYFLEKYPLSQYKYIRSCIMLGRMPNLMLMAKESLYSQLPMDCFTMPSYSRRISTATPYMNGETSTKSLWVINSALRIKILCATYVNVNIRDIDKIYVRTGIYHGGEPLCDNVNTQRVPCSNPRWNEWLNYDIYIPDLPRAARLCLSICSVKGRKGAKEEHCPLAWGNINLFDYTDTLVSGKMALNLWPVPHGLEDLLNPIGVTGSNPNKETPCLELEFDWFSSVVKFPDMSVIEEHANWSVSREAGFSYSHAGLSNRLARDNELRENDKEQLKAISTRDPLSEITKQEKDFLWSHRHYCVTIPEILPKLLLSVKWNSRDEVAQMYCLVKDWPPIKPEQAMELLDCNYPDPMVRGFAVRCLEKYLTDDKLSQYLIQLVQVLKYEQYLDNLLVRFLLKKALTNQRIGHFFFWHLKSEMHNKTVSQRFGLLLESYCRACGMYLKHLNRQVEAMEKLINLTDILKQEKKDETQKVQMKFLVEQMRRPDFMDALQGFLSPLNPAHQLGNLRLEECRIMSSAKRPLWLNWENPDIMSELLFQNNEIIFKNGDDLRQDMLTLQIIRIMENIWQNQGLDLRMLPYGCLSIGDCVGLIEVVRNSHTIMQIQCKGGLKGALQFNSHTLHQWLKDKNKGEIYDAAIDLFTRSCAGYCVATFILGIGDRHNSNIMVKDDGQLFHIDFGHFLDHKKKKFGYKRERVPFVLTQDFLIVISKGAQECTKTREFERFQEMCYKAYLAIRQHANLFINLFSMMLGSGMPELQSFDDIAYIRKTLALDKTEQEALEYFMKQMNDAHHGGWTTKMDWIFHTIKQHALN
Chain of PIK3CB (P42338 whole entry): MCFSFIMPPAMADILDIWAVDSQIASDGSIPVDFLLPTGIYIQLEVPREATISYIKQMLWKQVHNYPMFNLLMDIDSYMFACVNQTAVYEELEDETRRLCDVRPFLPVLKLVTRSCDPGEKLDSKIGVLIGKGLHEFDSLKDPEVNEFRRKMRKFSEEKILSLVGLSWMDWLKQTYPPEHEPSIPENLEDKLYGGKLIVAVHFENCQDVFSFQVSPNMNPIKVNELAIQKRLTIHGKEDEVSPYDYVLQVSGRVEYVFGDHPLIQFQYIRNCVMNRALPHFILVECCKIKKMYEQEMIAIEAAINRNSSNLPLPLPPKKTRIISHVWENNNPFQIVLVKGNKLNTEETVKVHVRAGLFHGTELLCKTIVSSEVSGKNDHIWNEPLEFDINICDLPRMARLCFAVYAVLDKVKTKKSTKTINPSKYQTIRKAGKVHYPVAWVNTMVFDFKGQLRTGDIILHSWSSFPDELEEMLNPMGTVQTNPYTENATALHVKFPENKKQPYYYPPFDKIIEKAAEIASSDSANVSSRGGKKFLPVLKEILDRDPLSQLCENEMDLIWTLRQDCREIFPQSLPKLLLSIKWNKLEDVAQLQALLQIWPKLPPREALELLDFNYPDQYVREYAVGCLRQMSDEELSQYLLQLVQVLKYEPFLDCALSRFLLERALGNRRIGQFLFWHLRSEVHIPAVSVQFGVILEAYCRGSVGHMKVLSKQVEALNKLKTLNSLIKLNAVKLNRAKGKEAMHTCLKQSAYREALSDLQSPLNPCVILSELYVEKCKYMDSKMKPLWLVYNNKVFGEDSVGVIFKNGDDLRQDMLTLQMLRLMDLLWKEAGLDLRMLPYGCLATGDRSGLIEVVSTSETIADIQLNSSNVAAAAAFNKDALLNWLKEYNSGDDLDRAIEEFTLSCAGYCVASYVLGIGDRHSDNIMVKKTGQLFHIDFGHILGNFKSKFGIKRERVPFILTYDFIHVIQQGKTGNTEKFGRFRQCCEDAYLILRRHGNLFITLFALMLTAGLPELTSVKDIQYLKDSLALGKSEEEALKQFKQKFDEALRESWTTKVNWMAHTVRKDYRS
Chain of ERK2 (P28482 whole entry): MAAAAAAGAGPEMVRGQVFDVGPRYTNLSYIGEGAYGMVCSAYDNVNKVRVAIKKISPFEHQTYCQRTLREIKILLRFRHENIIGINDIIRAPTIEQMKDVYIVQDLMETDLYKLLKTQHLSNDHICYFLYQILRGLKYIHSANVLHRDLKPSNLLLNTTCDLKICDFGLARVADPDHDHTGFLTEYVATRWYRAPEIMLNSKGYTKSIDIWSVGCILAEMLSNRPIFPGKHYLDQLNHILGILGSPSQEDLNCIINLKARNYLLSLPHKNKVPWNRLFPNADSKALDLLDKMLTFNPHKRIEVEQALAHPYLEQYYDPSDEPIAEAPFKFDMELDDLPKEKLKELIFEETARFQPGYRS
Chain of PIK3CA(I800L) (P42336 whole entry I800L): as the sequence (P42336 whole entry E545K) above, with K545E, I800L counted along it

`O=C1CCC(N2C(=O)c3cccc(NCCCCCCCCNC(=O)N4CC[C@H](NC5=Nc6cc(F)ccc6N(CC(F)F)c6ccc(Cl)cc65)C4)c3C2=O)C(=O)N1` (stereo partly drawn) [BJG-05-039, (3S)-3-((2-Chloro-5-(2,2-difluoroethyl)-8-fluoro-5H-dibenzo[b,e][1,4]diazepin-11-yl)amino)-N-(8-((2-(2,6-dioxopiperidin-3-yl)-1,3-dioxoisoindolin-4-yl)amino)octyl)pyrrolidine-1-carboxamide] was tested, and the remaining binding at 10 µM (NIK) was 76%, the remaining binding at 10 µM (MAP3K15) was 99% and the remaining binding at 10 µM (PIM3) was 78%. The remaining binding at 10 µM (AXL) was 49%, the remaining binding at 10 µM (CSNK1G3) was 63% and the remaining binding at 10 µM (SRPK1) was 87%. The remaining binding at 10 µM (EPHB4) was 91%, the remaining binding at 10 µM (MAP4K2) was 89% and the remaining binding at 10 µM (PYK2) was 85%. The remaining binding at 10 µM (CDK11) was 85%, the remaining binding at 10 µM (EPHA2) was 82% and the remaining binding at 10 µM (PIK3CA(E545K)) was 100%. The remaining binding at 10 µM (ERK2) was 85%, the remaining binding at 10 µM (MAPKAPK5) was 100% and the remaining binding at 10 µM (ERK5) was 57%. The remaining binding at 10 µM (PFPK5(P. falciparum)) was 100%, the remaining binding at 10 µM (PRP4) was 97% and the remaining binding at 10 µM (DLK) was 100%. For the same compound, the remaining binding at 10 µM (CDK9) was 53%, the remaining binding at 10 µM (CSNK1A1) was 93% and the remaining binding at 10 µM (PIK3CA(H1047Y)) was 94%. The remaining binding at 10 µM (PRKX) was 48%, the remaining binding at 10 µM (PIK3CA(I800L)) was 100% and the remaining binding at 10 µM (ROS1) was 94%. It also gave a remaining binding at 10 µM (BUB1) of 73%, a remaining binding at 10 µM (CSNK1G2) of 78% and a remaining binding at 10 µM (MEK6) of 86%. For the same compound, the “Percent Control” value (FLT3(ITD)) was 87, the remaining binding at 10 µM (PIK3CB) was 100% and the remaining binding at 10 µM (VRK2) was 94%. The remaining binding at 10 µM (DMPK2) was 72%, the remaining binding at 10 µM (SGK) was 100% and the remaining binding at 10 µM (p38-delta) was 92%. For the same compound, the remaining binding at 10 µM (MST1) was 90%, the remaining binding at 10 µM (KIT(D816H)) was 100% and the remaining binding at 10 µM (MARK3) was 83%. It also gave a remaining binding at 10 µM (MLK1) of 83% and a remaining binding at 10 µM (EPHB1) of 98%.
